The source of these data is US9855230B2 (ViiV Healthcare UK (No. 5) Limited, priority 2014, dated 2018).

By CC50 is commonly meant the concentration giving 50% cytotoxicity. Low values mean greater toxicity to the cells, high ones lower toxicity to the cells.

Series [1] relates to recombinant NL4-3 virus (nef section replaced with Renilla luciferase gene) in MT-2 cells. The series can be described thus: whole plant or invertebrate. The series is classed as cell-based, HIV. The method in brief: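 Nef-deleted NL4-3 reporter virus carrying Renilla luciferase was used to infect MT-2 cells in the presence of serial compound dilutions. After 4-5 days of infection, antiviral activity was quantified from luciferase activity using a live-cell substrate.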

Series [2] is described as follows: Compound cytotoxicity (CC50), XTT-based colorimetric assay. The series is classed as cell-based. Particulars: human; uninfected MT2 cells, day 4, XTT assay. The method in brief: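 Run under the antiviral-assay protocol but without virus. Viability was read on day 4 and CC50 values were derived from the readout.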
Where [3] appears, read: NL43, luciferase activity in MT-2 cells infected 4-5 days with recombinant NL4-3 virus, read-out: Activity.
Where [4] appears, read: NL43, luciferase activity in MT-2 cells infected 4-5 days with recombinant NL4-3 virus, read-out: EC50.

Structures are written as SMILES. Counter-ions that a name gives are not always drawn. Like-named read-outs stand apart in the source and are kept apart here. A value given as a limit tells only on which side of the number the result lay.

With `O=C(N[C@@H](Cc1cc(F)cc(F)c1)c1ncccc1-c1ccc2ccncc2c1)NS(=O)(=O)c1ccccc1Cl` [Example 92, (S)-2-chloro-N-((2-(3,5-difluorophenyl)-1-(3-(isoquinolin-7-yl)pyridin-2-yl)ethyl)carbamoyl)benzenesulfonamide, 2 TFA], the EC50 in series [1] (setting [3]) was 100 to 1000 nM. For the same compound, the CC50 at 4 day in series [2] is above 100000 nM.

`CCOc1ccc(-c2cccnc2C(Cc2ccccc2)NC(=O)NS(=O)(=O)c2ccccc2C)cc1` (centres unmarked) [Example 93, N-((1-(3-(4-ethoxyphenyl)pyridin-2-yl)-2-phenylethyl)carbamoyl)-2-methylbenzenesulfonamide]: the EC50 in series [1] (setting [3]) was 100 to 1000 nM; in series [1] (setting [4]), 420 nM. Moreover, the cytotoxic concentration (CC50) at 4 day in series [2] is above 100000 nM.

Regarding `CCOc1ccc(-c2cccnc2[C@H](Cc2cc(F)cc(F)c2)NC(=O)NS(=O)(=O)c2ccccc2C)cc1` [Example 94, (S)-N-((2-(3,5-difluorophenyl)-1-(3-(4-ethoxyphenyl)pyridin-2-yl)ethyl)carbamoyl)-2-methylbenzenesulfonamide, TFA], the EC50 in series [1] (setting [3]) is 100 to 1000 nM. Further, in series [2], the cytotoxic concentration (CC50) at 4 day was above 100000 nM.

Take `NC(=O)c1cc(-c2cccnc2[C@H](Cc2cc(F)cc(F)c2)NC(=O)NS(=O)(=O)c2ccccc2Cl)ccc1F` [Example 95, (S)-5-(2-(1-(3-((2-chlorophenyl)sulfonyl)ureido)-2-(3,5-difluorophenyl)ethyl)pyridin-3-yl)-2-fluorobenzamide, TFA]: the EC50 in series [1] (setting [3]) lay in the range of 100 to 1000 nM. Moreover, the CC50 at 4 day in series [2] is above 100000 nM.

With `COc1ccc(-c2cccnc2[C@H](Cc2cc(F)cc(F)c2)NC(=O)NS(=O)(=O)c2ccccc2C)cc1` [Example 96, (S)-N-((2-(3,5-difluorophenyl)-1-(3-(4-methoxyphenyl)pyridin-2-yl)ethyl)carbamoyl)-2-methylbenzenesulfonamide, TFA], the EC50 in series [1] (setting [3]) is 100 to 1000 nM; in series [1] (setting [4]), 590 nM. In addition, in series [2], the 50% cytotoxic concentration (CC50) at 4 day is above 33000 nM.

On to `Cc1ccccc1S(=O)(=O)NC(=O)N[C@@H](Cc1cc(F)cc(F)c1)c1ncccc1-c1ccc(F)c(C(N)=O)c1` [Example 97, (S)-5-(2-(2-(3,5-difluorophenyl)-1-(3-(o-tolylsulfonyl)ureido)ethyl)pyridin-3-yl)-2-fluorobenzamide, TFA], for which the EC50 in series [1] (setting [3]) lay within 100 to 1000 nM. In series [2], this compound yielded a CC50 at 4 day above 100000 nM.

Regarding `Cc1ccccc1S(=O)(=O)NC(=O)NC(Cc1ccccc1)c1ncccc1-c1ccc(F)c(C(N)=O)c1` (centres unmarked) [Example 98, 2-fluoro-5-(2-(2-phenyl-1-(3-(o-tolylsulfonyl)ureido)ethyl)pyridin-3-yl)benzamide, TFA], the EC50 in series [1] (setting [3]) fell in the range of 100 to 1000 nM. For the same compound, the cytotoxic concentration (CC50) at 4 day in series [2] was above 33000 nM.

As for `O=C(N[C@H](Cc1cc(F)cc(F)c1)c1ncccc1-c1ccc2ccncc2c1)NS(=O)(=O)c1ccccc1Cl` [Example 99, (R)-2-chloro-N-((2-(3,5-difluorophenyl)-1-(3-(isoquinolin-7-yl)pyridin-2-yl)ethyl)carbamoyl)benzenesulfonamide, 2 TFA], the EC50 in series [1] (NL43) is 1060 nM; in series [1] (NL43, read-out: Activity), above 1000 nM. Moreover, the CC50 at 4 day in series [2] is above 33000 nM.

With `Cc1ccccc1S(=O)(=O)NC(=O)N[C@@H](Cc1cc(F)cc(F)c1)c1ncccc1-c1cncc(F)c1` [Example 100, (S)-N-((2-(3,5-difluorophenyl)-1-(5′-fluoro-[3,3′-bipyridin]-2-yl)ethyl)carbamoyl)-2-methylbenzenesulfonamide, 2 TFA], the EC50 in series [1] (setting [3]) is above 1000 nM. The same compound returned a cytotoxic concentration (CC50) at 4 day in series [2] above 100000 nM.

For the compound `CC(C)(C)OC(=O)n1cc(-c2cccnc2[C@@H](Cc2cc(F)cc(F)c2)NC(=O)NS(=O)(=O)c2ccccc2Cl)c2ccccc21` [Example 101, (R)-tert-butyl 3-(2-(1-(3-((2-chlorophenyl)sulfonyl)ureido)-2-(3,5-difluorophenyl)ethyl)pyridin-3-yl)-1H-indole-1-carboxylate, TFA], in series [1] (setting [3]), the EC50 is above 1000 nM. It took 36000 nM to reach half-maximal cytotoxicity in series [2] (CC50 at 4 day).
